The record followed here is patent US20240327493A1 (GEORGE MASON UNIVERSITY, priority 2023, published 2024).

Entries after “also recorded” stand apart in the source; their conditions may differ. Where a SMILES comes first, the peptide text is derived from it. Bridges are numbered along the chain shown (N, C = ends). Where no end group is shown, it is not given here.

Data set [1] addresses T1, PD-1/PD-L1 complex (Homo sapiens, UniProt Q15116).
T1 construct: purchased PerkinElmer AL356HV
Put plainly: AlphaScreen (PD-1/PD-L1 AlphaLISA binding kit), PD-1/PD-L1 complex formation. The conditions noted are these: for Residual Activity: AlphaScreen PD-1/PD-L1 complex formation; for Blocking of PD-1/PD-L1 complex formation: AlphaScreen, result in words. A general note: Alpha assays give light when donor and acceptor beads are brought close together.
Procedure: Peptides were screened using the PerkinElmer PD-1/PD-L1 (human) AlphaLISA Binding Kit (Waltham, MA, USA, Cat. No. AL356HV) according to the manufacturer's instructions. […] Briefly, peptides were resuspended in assay buffer with 4% dimethyl sulfoxide (DMSO) to make 4× stock solutions of 400 μM. […] Lastly, the 4× mixture of anti-His Acceptor beads and streptavidin Donor beads were prepared in the dark. […] The plate was incubated in the dark for 90 minutes at room temperature and luminescence was measured using a Tecan Spark multimode plate reader (Männedorf, Switzerland). For data analysis, a control with beads alone was subtracted from each well for background correction. Data analysis was conducted using GraphPad Prism version 9 (La Jolla, CA, USA).

The conditions of data set [2]: human serum diluted 1:4 in RPMI, ESI-MS, 0, 6, 24, 48 hours. The method, then:
Angiotensin I was spiked in and used for normalization.
Human serum was diluted 1:4 in Gibco RPMI 1640 media (ThermoFisher Scientific, Waltham, MA, USA, Cat. No. 11-875-093) for a total of 1 mL and incubated at 37° C. for 15 minutes prior to time course. Next, 1 μL of the peptide stock was added to warmed serum for a final concentration of […] in the master mix. The rest of the time course was performed at room temperature. For each time point, aliquots of 100 μL were removed from the master mix and added to 200 μL of 3% trifluoroacetic acid. Samples were incubated on ice for 15 minutes before centrifugation at 16,000×g for 2.5 minutes. Supernatants were transferred to a clean tube and prepared for desalting via C18 column by adding 100 μL of sample buffer (20% acetonitrile, 2% trifluoroacetic acid) to supernatants before storage at—20° C. overnight. Samples were then processed through Pierce C18 spin columns (ThermoFisher Scientific, Cat. No. 89870) according to the manufacturer's instructions. […]
For ESI-MS analysis, serum stability samples were run on an Orbitrap Exploris 480 (ThermoFisher Scientific). […] ThermoFisher's Xcalibur 4.0 Data System was used for peptide quantification. […] The samples were batch reprocessed for quantification via peak area. Peptide abundances were normalized based on Angiotensin I abundance and quantified relative to initial abundance.

The nature of data set [3]: Human serum was diluted 1:4 in Gibco RPMI 1640 media. The following applies: room temperature (serum incubated at 37° C. for 15 minutes prior to time course); for fragment found: up to 6 hours.
In data set [4] the test system is human PBMCs co-cultured with OVCAR8 cells. Put plainly: Co-culture of OVCAR8 cells and stimulated human PBMCs, 1:10 OVCAR8:PBMC ratio. The conditions noted are these: for Immunosuppressive effect (reduction in TNFα/cytokines) compared with controls rPD-L1 and MN_Null: 1:10 OVCAR8:PBMC co-culture, FIG. 10D. Type of data set: cell-based. The method, then: For this model, PBMCs and cancer cells were both stimulated prior to co-culture to promote expression of PD-1 and PD-L1, respectively.
OVCAR8 cells, generously provided by the Gottesman Lab (National Institutes of Health, Bethesda, MD, USA), and MDA-MB-231 cells (American Type Culture Collection, Rockville, MD, USA) were cultured in Gibco RPMI 1640 media (ThermoFisher Scientific, Cat. No. 11-875-093) supplemented with 10% Gibco fetal bovine serum (ThermoFisher Scientific, Cat. No. 10437028), and 1% penicillin/streptomycin (10,000 U/mL pen, 10 mg/mL strcp) from MilliporeSigma (Burlington, MA, USA, Cat. No. P4333). Cells were cultured at 37° C. and 5% CO2. Passage number was kept below 3 for co-culture assay. Human peripheral blood mononuclear cells were purchased frozen from […] PBMCs were thawed according to manufacturer's instructions one day before co-culture and cultured in the same media and conditions as cancer cell lines.
The next day, cells were stimulated with 100 ng/mL IFNγ and two vials of human PBMCs were thawed. On Day 3, concentrations of PBMCs and OVCAR8 cells (harvested from a control well) were measured using the QuadCount Automated Cell Counter. The concentration of PBMCs required for a 1:10 OVCAR8:PBMC ratio was calculated from the OVCAR8 concentration. PBMCs were plated on a separate 24-well plate (1 mL/well) and stimulated with 5 μg/mL of anti-CD3 and 5 μg/mL of anti-CD28 for 30 minutes before drug treatment. […] After 30 minutes, media was removed from OVCAR8 wells without treatment, and replaced with 1 mL of treated PBMCs. After 24 hours, the supernatants were collected from each well, and centrifuged at 10,000×g for 5 minutes to remove any remaining cells.
Briefly, samples from co-culture experiments with excess OVCAR8 ratios were diluted 1:10 in assay buffer, and samples from co-culture experiments with excess PBMC ratios were diluted 1:5 in assay buffer. Next, 10 μL of the diluted samples were mixed with 10 μL of an IL-2 antibody-oligonucleotide conjugate mixture and added to a 96-well working plate. Samples with excess OVCAR8 ratios were allowed to incubate overnight at 4° C. Samples with excess PBMCs were allowed to incubate for 1 hour at room temperature. Next, 80 μL of qPCR reaction mixture containing master mix and DNA ligase was added to each well. The plate was centrifuged at 2,500×g for 2 minutes. Samples were then added in triplicate (20 μL/well) to a 96-well PCR plate (ThermoFisher Scientific). PCR was run according to manufacturer's instructions using the QuantStudio 7 Pro Real-Time PCR System equipped with a 96-well, 0.2 mL block from ThermoFisher Scientific.
Remaining samples from experiments with excess PBMC ratios were analyzed using TNFα (Cat. No. 430204) ELISA MAX Deluxe Sets (BioLegend, San Diego, CA, USA) according to manufacturer's instructions. Briefly, 96-well Nunc™ MaxiSorp™ ELISA Plates (BioLegend, Cat. No. 423501) were coated with capture antibodies for TNFα and incubated overnight at 4° C. The next day, the plate was washed 4× with 1×PBS+0.05% Tween-20 (PBS-T). To block non-specific binding, 200 μL of assay dilutant buffer was added to each well and the plate was incubated at room temperature for 1 hour on a shaker. The plate was washed as before, and 100 μL of the samples or standards were added to each well in triplicate and incubated at room temperature for 2 hours on a shaker. The plate was washed 4× and 100 μL of detection antibody for TNFα was added to each well, and the plate was incubated at room temperature for 1 hour on a shaker. The plate was washed 4× and 100 μL of Avidin-HRP was added to each well, and the plate was incubated at room temperature for 30 minutes on a shaker.

Data set [5] addresses T2, biotinylated PD-1 of the PerkinElmer PD-1/PD-L1 (human) AlphaLISA Binding Kit (human, UniProt Q15116 25-167, limits assumed, biotinylated (site not stated)).
T2 construct: Bought kit reagent
Put plainly: AlphaScreen (PerkinElmer PD-1/PD-L1 human AlphaLISA binding kit): peptide titrated against biotinylated PD-1 and His-tagged PD-L1; readout percent activity (PD-1/PD-L1 complex formation). On the procedure: (§1) Briefly, peptides were resuspended in assay buffer with 4% dimethyl sulfoxide (DMSO) to make 4× stock solutions of 400 μM. […] Lastly, the 4× mixture of anti-His Acceptor beads and streptavidin Donor beads were prepared in the dark. Peptides were then added in duplicates of 10 μL to a white 96-well ½-AreaPlate (PerkinElmer, Cat. No. 6005560) at 7 different concentrations from 1 nM to 100 μM. […] The plate was incubated in the dark for 90 minutes at room temperature and luminescence was measured using a Tecan Spark multimode plate reader (Männedorf, Switzerland). For data analysis, a control with beads alone was subtracted from each well for background correction. Data analysis was conducted using GraphPad Prism version 9 (La Jolla, CA, USA).

Data set [6] deals with T2, biotinylated PD-1 of the PerkinElmer …. Put plainly: AlphaScreen (PerkinElmer PD-1/PD-L1 human AlphaLISA binding kit): peptide titrated against biotinylated PD-1 and His-tagged PD-L1; readout percent PD-1/PD-L1 binding. On the procedure: as §1

T1 sequence (Q15116 25-170 limits assumed, one chain of several): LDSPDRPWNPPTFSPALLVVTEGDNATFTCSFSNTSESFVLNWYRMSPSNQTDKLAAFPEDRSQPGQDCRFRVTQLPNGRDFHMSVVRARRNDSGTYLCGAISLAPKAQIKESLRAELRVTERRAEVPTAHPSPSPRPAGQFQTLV
T2 sequence (Q15116 25-167 limits assumed): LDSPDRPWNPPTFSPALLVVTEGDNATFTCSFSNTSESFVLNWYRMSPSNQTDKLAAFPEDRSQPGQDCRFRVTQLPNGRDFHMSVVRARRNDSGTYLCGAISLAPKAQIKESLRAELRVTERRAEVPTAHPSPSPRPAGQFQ

As a reminder, the IC50 is the midpoint of a concentration-inhibition curve. A higher IC50 goes with weaker potency. In data set [1], `CC[C@H](C)[C@@H]1NC(=O)[C@H](CCSC)NC(=O)[C@H](C)NC(=O)[C@H](CCCNC(=N)N)NC(=O)[C@H](Cc2ccc(O)cc2)NC(=O)[C@@H](N)CSSC[C@@H](C(=O)O)NC(=O)[C@H](C(C)C)NC(=O)[C@H]([C@@H](C)O)NC(=O)[C@H]([C@@H](C)CC)NC(=O)[C@H](CCCNC(=N)N)NC(=O)[C@H](CCCCN)NC(=O)[C@H](Cc2ccc(O)cc2)NC(=O)[C@H](CC(=O)O)NC(=O)[C@H](C)NC(=O)CNC(=O)CNC(=O)[C@H](Cc2ccc(O)cc2)NC(=O)[C@H](CO)NC1=O` [SEQ ID NO. 4] (H-CYRAMISYGGADYKRITVC-OH; disulfide 1-19) yielded an IC50 of less than 10 µM. For the same molecule, the Degradation in serum result in data set [2] is recorded as “present at very low levels after 48 hours”.

On to “CRALIAYKGADYKRIC (disulfide 1-16) [SEQ ID NO. 8]”, for which, in data set [1], the “Residual Activity” value is given as 62.87%.

Regarding “CRAMISYKGADYKRIC (disulfide 1-16) [SEQ ID NO. 7]”, the “Residual Activity” value in data set [1] is reported as 45.77%.

Take “CRAXISYGGADYKXIC (norleucine at position 4; SITE 4 Nle; DISULFID 1..16 Intra chain disulphide formation; SITE 14 N-methyl arginine) [SEQ ID NO. 6]”: in data set [1], the “Residual Activity” value is on record as 82.74% and the “Blocking of PD-1/PD-L1 complex formation” value is “lost activity”. Further, the “Blocking of PD-1/PD-L1 complex formation” value in data set [1] (listed as MN1.5) is reported as “abolished the ability of MN1.1 to block PD-1/PD-L1 complex formation”.

For the molecule NH3-CRAMISYGGADYK-(N-Me-Arg)-IC—COOH, the fragment found result in data set [3] was “oxidized MN1.4”. For the same molecule, in data set [3] (up to 48 hours), the not cleaved result was “not significantly degraded at 48 hours”.

Take Pembrolizumab [reference compound]: in data set [4] (1:10 OVCAR8:PBMC, 24 hours, ELISA, vs untreated co-culture control, FIG. 10C), the TNFα levels entry is listed as “did not have this effect”. Also, the IL-2 levels entry in data set [4] (1:10 OVCAR8:PBMC, 24 hours, vs untreated co-culture control, FIG. 10B) is “did not have this effect”.

Take “YRCMISNGGADYKRITV (Ac-YRCMISNGGADYKRITV-NH2) [SEQ ID NO. 3]”: in data set [1], the “Blocking of PD-1/PD-L1 complex formation” value is listed as “mutation of Y7 is tolerated”.

With YRCMISYGGADEKRITV [SEQ ID NO. 14], the “Immunosuppressive effect (reduction in TNFα/cytokines) compared with controls rPD-L1 and MN_Null” value in data set [4] (listed as MN-Null) is listed as “did not show a significant reduction”; in data set [4] (listed as MN_Null), “less immunosuppressive activity as compared to MN1.4; also recorded: little immunosuppressive effect”.

In the case of YRCMISYGGADYKRITV, the fragment found entry in data set [3] was “cysteinylated peptide, major, 15 minutes; also recorded: oxidized MN 1.1, minor, time 0”.

CRAMISYKGADYKRIC (disulfide 1-16) [MN 3.2]: the “IC50 (read off the curve)” value in data set [5] is roughly 10 µM.

With CRALIAYKGADYKRIC (disulfide 1-16) [MN4.2], the “IC50 (read off the curve)” value in data set [5] is roughly 10 µM.

B1: MN 2.1 (peptide)
peptide: Ac-YRCMISNGGADYKRITV-NH2
modifications: not fully specified
notes: the text speaks of Y7Q for the computation
The molecule B1 gave an IC50 in data set [6] of 17.4 µM.
